Data published in ChEMBL document CHEMBL1201862, “PubChem BioAssay data set” (2004).
Calls of active or inactive are those of the source. Unless noted, no cut-off for these calls is given here.

Tests used:
Mu-type opioid receptor [1] = target: T1, Mu-type opioid receptor (Homo sapiens, UniProt P35372); assay: SAR Analysis of Antagonists of the MOR Receptor using an Image-Based Assay - Set 2. [Related pubchem assays (depositor defined):AID1777, AID1785, AID1786, AID1966, AID2133, AID2136, AID2284, AID2285, AID2420]; assay type: functional
T1 sequence (P35372 whole entry): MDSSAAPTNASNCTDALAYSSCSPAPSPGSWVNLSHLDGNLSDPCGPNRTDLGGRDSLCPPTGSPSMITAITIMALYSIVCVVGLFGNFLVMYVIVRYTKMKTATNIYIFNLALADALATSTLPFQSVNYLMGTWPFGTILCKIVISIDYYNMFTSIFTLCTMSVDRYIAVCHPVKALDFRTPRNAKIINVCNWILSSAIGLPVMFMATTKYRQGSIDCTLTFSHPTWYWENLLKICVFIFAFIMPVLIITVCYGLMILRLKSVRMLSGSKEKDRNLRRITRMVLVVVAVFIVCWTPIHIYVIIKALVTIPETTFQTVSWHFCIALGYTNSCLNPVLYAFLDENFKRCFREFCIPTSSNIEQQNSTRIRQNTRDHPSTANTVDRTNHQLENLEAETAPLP

[2] = target: T2, Kappa-type opioid receptor (Homo sapiens, UniProt P41145); assay: SAR analysis of Antagonists of the Kappa Opioid Receptor (KOR) using an Image-Based Assay - Set 2. [Related pubchem assays (depositor defined):AID1777, AID1785, AID1786, AID1966, AID2133, AID2136, AID2284, AID2285, AID2348]; assay type: functional
T2 sequence (P41145 whole entry): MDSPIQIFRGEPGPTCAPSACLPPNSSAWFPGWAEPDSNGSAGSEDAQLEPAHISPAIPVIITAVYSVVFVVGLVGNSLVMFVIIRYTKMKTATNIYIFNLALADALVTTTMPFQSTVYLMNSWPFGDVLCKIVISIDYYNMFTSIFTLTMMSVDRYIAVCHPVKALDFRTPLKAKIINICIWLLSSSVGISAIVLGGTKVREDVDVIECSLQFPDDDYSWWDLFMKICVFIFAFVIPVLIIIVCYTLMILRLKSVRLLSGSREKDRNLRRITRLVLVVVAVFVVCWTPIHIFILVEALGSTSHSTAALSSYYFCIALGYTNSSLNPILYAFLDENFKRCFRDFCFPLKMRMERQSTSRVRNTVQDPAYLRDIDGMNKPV

Mu-type opioid receptor [3] = target: T1, Mu-type opioid receptor; assay: SAR Analysis of Agonists of the MOR Receptor using an Image-Based Assay - Set 2. [Related pubchem assays (depositor defined):AID1777, AID1785, AID1786, AID1966, AID2133, AID2136, AID2284, AID2285, AID2352]; assay type: functional
[4] = target: T2, Kappa-type opioid receptor; assay: SAR analysis of small molecule agonists of the kappa opioid receptor via a luminescent beta-arrestin assay - Set 2. [Related pubchem assays (depositor defined):AID1777, AID1785, AID1786, AID1966, AID2133, AID2136, AID2284, AID449737]; assay type: functional
[5] = target: T3, Delta-type opioid receptor (Homo sapiens, UniProt P41143); assay: SAR Analysis of Agonists of the DOR Receptor using an Image-Based Assay - Set 2. [Related pubchem assays (depositor defined):AID1777, AID1785, AID1786, AID1966, AID2133, AID2136, AID2284, AID2285, AID2370]; assay type: functional
T3 sequence (P41143 whole entry): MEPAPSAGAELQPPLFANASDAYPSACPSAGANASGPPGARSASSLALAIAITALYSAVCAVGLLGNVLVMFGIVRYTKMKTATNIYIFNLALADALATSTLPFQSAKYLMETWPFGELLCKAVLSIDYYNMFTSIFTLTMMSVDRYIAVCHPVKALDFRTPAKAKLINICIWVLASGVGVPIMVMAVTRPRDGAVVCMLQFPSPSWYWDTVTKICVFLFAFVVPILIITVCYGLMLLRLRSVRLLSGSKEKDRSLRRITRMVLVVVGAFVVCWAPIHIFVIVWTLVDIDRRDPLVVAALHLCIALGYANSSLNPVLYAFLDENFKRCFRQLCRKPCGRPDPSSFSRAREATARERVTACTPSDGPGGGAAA

[6] = target: T3, Delta-type opioid receptor; assay: SAR Analysis of Antagonists of the DOR Receptor using an Image-Based Assay - Set 2. [Related pubchem assays (depositor defined):AID1777, AID1785, AID1786, AID1966, AID2133, AID2136, AID2284, AID2285, AID2357]; assay type: functional
[7] = target: T2, Kappa-type opioid receptor; assay: SAR analysis of Agonists of the Kappa Opioid Receptor (KOR) using an Image-Based Assay - Set 2. [Related pubchem assays (depositor defined):AID1777, AID1786, AID1966, AID2133, AID2136, AID2284, AID2285, AID2359]; assay type: functional
Troponin, cardiac muscle = Troponin, cardiac muscle (Homo sapiens, UniProt P19429+P45379+P63316); assay: Fluorescence-based biochemical high throughput dose response assay for activators of the calcium sensitivity of cardiac Regulated Thin Filaments (RTF). [Related pubchem assays (depositor defined):AID493008, AID493018, AID504382, AID504383]; assay type: protein-complex assay
[8] = target: T2, Kappa-type opioid receptor; assay: SAR analysis of small molecule agonists of the kappa opioid receptor via a luminescent beta-arrestin assay - Set 3. [Related pubchem assays (depositor defined):AID1777, AID1785, AID1786, AID1966, AID2133, AID2136, AID2284, AID2500]; assay type: functional
Hexokinase HKDC1 = Hexokinase HKDC1 (Homo sapiens, UniProt Q2TB90); assay: HKDC1 hexokinase activators, dose response, biochemical, W721R variant (AID 504730); assay type: functional
Hexokinase HKDC1, sequence (Q2TB90 whole entry): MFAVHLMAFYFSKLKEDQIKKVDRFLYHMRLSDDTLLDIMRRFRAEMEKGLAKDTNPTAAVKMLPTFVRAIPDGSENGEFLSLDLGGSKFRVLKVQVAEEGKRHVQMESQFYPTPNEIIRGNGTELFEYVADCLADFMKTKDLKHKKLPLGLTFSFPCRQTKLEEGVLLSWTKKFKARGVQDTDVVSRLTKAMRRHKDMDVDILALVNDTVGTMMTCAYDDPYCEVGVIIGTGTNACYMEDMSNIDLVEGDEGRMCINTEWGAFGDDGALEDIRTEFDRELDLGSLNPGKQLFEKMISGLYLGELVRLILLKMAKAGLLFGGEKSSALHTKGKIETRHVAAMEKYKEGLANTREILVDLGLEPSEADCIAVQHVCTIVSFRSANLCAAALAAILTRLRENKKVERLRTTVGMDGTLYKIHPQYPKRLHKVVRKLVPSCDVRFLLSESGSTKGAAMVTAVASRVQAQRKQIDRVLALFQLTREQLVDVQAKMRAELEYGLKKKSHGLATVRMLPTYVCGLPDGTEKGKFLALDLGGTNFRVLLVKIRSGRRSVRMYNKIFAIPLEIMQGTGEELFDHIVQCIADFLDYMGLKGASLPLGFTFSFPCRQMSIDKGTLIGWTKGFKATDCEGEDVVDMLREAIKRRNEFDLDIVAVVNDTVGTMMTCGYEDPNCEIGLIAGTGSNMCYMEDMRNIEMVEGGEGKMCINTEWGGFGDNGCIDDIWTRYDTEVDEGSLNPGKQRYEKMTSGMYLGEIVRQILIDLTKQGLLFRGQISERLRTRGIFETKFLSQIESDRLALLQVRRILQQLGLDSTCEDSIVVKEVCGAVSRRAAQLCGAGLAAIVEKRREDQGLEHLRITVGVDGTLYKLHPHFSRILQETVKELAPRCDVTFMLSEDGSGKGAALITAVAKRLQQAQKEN

Hexokinase-1 = Hexokinase-1 (Homo sapiens, UniProt P19367); assay: hexokinase 1 activators, dose response, selectivity assay for HKDC1 activator project, biochemical (AID 504762); assay type: functional
Hexokinase-1, sequence (P19367 whole entry): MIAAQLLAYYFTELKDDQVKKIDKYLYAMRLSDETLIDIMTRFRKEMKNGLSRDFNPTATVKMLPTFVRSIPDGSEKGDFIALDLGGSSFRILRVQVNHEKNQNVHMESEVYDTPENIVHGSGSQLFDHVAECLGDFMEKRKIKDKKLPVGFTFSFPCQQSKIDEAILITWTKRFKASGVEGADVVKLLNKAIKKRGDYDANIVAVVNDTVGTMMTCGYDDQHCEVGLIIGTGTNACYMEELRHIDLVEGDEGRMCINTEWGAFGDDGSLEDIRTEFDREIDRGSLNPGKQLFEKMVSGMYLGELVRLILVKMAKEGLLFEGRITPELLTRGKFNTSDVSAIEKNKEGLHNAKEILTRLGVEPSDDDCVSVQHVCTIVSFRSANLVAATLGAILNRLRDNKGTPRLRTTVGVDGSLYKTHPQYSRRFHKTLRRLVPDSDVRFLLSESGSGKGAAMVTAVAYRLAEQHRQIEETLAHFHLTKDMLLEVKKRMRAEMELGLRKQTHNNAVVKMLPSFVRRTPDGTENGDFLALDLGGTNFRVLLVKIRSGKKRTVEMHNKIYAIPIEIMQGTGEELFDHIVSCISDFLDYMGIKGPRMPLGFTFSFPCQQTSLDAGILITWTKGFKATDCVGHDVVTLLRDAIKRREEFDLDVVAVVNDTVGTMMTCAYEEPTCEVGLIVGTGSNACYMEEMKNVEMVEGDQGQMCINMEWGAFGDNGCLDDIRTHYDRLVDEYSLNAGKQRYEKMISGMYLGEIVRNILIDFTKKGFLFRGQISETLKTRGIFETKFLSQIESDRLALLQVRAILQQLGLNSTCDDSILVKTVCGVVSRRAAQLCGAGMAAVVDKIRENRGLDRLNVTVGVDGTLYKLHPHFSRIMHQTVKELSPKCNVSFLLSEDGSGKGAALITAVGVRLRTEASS

With `Fc1ccc(CSc2nnc(-c3ccccn3)n2Cc2cccs2)c(F)c1` the IC50 (Mu-type opioid receptor [1]) was > 32 µM (inactive), the IC50 [2] was > 32 µM (inactive) and the EC50 (Mu-type opioid receptor [3]) was > 32 µM (inactive). For the same compound, the EC50 [4] was 6.73 µM (active), the EC50 [5] was > 32 µM (inactive) and the IC50 [6] was > 32 µM (inactive). The EC50 [7] was 5.68 µM (active).
`C=CCN1C(=O)c2ccccc2NC1c1cc(Br)cs1` (stereo unspecified) was tested, and the EC50 (Troponin, cardiac muscle) was > 71.5 µM (inactive).
With `FC(F)(F)c1cc(CSc2nnc(-c3ccncc3)n2Cc2ccco2)ccc1Cl` the EC50 [8] was > 20 µM (inactive).
With `CC12CCC(C(=O)N/N=C/c3ccc(O)cc3O)(OC1=O)C2(C)C` (stereo unspecified) the EC50 (Hexokinase HKDC1) was > 80 µM (inactive) and the EC50 (Hexokinase-1) was > 80 µM (inactive).
